{"source": "patent US7429482B2", "about": "“Screening tools for discovery of novel anabolic agents” (United States of America as represented by the Department …, priority 2005, dated 2008)", "key": {"IGFBP-5": {"system": "IGFBP-5", "test": "Chronic denervation: IGFBP-5 mRNA in gastrocnemius (qPCR)", "format": "in vivo, rat", "method": "(§1) Male Wistar rats weighing 200-250 gm (Taconic Farms, Germantown, N.Y.) were provided food and water ad libitum and were housed in a temperature and humidity controlled environment providing a 12:12 hour day-night cycle. For surgical procedures, animals were anesthetized with ketamine/xylazine. The left sciatic nerve was exposed by blunt dissection, and a 1 to 2 mm piece of this nerve was excised just below the level of the femoral head. A sham surgery was performed on the right hind limb in which the sciatic nerve was exposed but was not transected. Twenty eight days later, animals were anesthetized, and Alzet pumps were implanted subcutaneously on the back. […] Testosterone levels after replacement were approximately 15 nM, a high-normal range for rats of this age. Animals were sacrificed 3, 7 or 28 days after implantation of the miniosmotic pumps by inhalation of carbon dioxide. Gastrocnemius muscles were excised and weighed, then flash frozen on dry ice and stored at −80° C.\n(§2) Total RNA was extracted from skeletal muscle (20 mg) by homogenization in guanidine thiocyanate using a Polytron followed by extraction of total RNA with phenol-chloroform as described by (Chomczynski and Sacchi, Anal Biochem 162: 156-159, 1987). Total RNA was further enriched using RNAeasy minicolumns (Qiagen, Valencia, Calif.). This procedure included digestion of contaminating DNA on the column with RNAse-free DNAse (Qiagen). Total RNA was eluted and quantified by absorbance at 260 nm. One μg of total RNA was used to prepare a cDNA library by reverse transcription (High Capacity cDNA Archive Kit, Applied Biosystems). Libraries were diluted 25-fold with water. Real time PCR was performed Taqman 2×PCR buffer (Applied Biosystems) using an Applied Biosystems 7500 thermocycler. Levels of gene expression in the denervated muscle were expressed as fold induction relative to muscle from the sham-denervated leg of animals administered vehicle. […] Fold-induction was determined using the 2^−ΔΔCt method, using expression of 18S RNA as the normalization control. […]"}, "IGFBP-2": {"system": "IGFBP-2", "test": "Chronic denervation: IGFBP-2 mRNA in gastrocnemius (qPCR)", "format": "in vivo, rat", "method": "as §1, with “Animals were sacrificed 3, 7 or 28 days after implantation of the miniosmotic pumps by inhalation of carbon dioxide. Gastrocnemius muscles were excised and weighed, then flash frozen on dry ice and stored at −80° C.” left out\nTotal RNA was extracted from skeletal muscle (20 mg) by homogenization in guanidine thiocyanate using a Polytron followed by extraction of total RNA with phenol-chloroform as described by (Chomczynski and Sacchi, Anal Biochem 162: 156-159, 1987). […] Total RNA was eluted and quantified by absorbance at 260 nm. […] Levels of gene expression in the denervated muscle were expressed as fold induction relative to muscle from the sham-denervated leg of animals administered vehicle. […] Fold-induction was determined using the 2^−ΔΔCt method, using expression of 18S RNA as the normalization control. […]"}, "MAFbx": {"system": "MAFbx", "test": "Chronic denervation: MAFbx mRNA in gastrocnemius (qPCR)", "format": "in vivo, rat", "method": "as §1, §2"}, "[1]": {"test": "Chronic denervation: gastrocnemius muscle weights", "format": "in vivo, rat", "method": "as §1"}, "MuRF1": {"system": "MuRF1", "test": "Acute denervation: MuRF1 mRNA in EDL and soleus (qPCR)", "format": "in vivo, rat", "details": "nandrolone 1.5 mg/kg/wk 14 days", "method": "(§3) Male Wistar rats weighing 250 gm (Taconic Farms, Germantown, N.Y.) were provided food and water ad libitum and were housed in a temperature and humidity controlled environment providing a 12:12 hour day-night cycle. For surgical procedures, animals were anesthetized with ketamine/xylazine. The left sciatic nerve was exposed by blunt dissection, and a 1 to 2 mm piece of this nerve was excised just below the level of the femoral head. A sham surgery was performed on the right hind limb in which the sciatic nerve was exposed but was not transected. Model 2002 Alzet pumps were implanted subcutaneously on the back. […] A pellet containing 15 mg of testosterone (Innovative Research of America, Sarasota, Fla.) administered as a continuous infusion (5 mg/wk), or a pellet containing placebo, was inserted into a subcutaneous pouch. […] Because testosterone is known to have anabolic actions (Ferrando et al., Am J Physiol Endocrinol Metab 282: E601-E607, 2002; Mauras et al., J Clin Endocrinol Metab 83: 1886-1892, 1998; Urban et al., Am J Physiol 269: E820-E826, 1995), reductions in levels of this hormone could affect muscle mass and confound interpretation of the results. Animals were euthanized 14 days later by inhalation of carbon dioxide. […]\n(§4) Total RNA was extracted from skeletal muscle (20 mg) by homogenization in guanidine thiocyanate using a Polytron followed by extraction using phenol-chloroform (Chomczynski and Sacchi, Anal Biochem 162: 156-159, 1987). […] Total RNA was then eluted and quantified by absorbance at 260 nm. […] Levels of gene expression in the denervated muscle were expressed as fold induction relative to muscle from the sham-denervated leg of animals administered vehicle. […] Fold-induction was determined using the 2^−ΔΔCt method, using expression of 18S RNA as the normalization control. […]"}, "myostatin": {"system": "myostatin", "test": "Acute denervation: myostatin mRNA in EDL and soleus (qPCR)", "format": "in vivo, rat", "method": "as §3, §4"}, "IGF-1": {"system": "IGF-1", "test": "Acute denervation: IGF-1 mRNA in EDL and soleus (qPCR)", "format": "in vivo, rat", "details": "nandrolone 1.5 mg/kg/wk 14 days", "method": "as §3, §4"}, "GADD45": {"system": "GADD45", "test": "Acute denervation: GADD45 mRNA in EDL and soleus (qPCR)", "format": "in vivo, rat", "details": "significant", "method": "Male Wistar rats weighing 250 gm (Taconic Farms, Germantown, N.Y.) were provided food and water ad libitum and were housed in a temperature and humidity controlled environment providing a 12:12 hour day-night cycle. For surgical procedures, animals were anesthetized with ketamine/xylazine. The left sciatic nerve was exposed by blunt dissection, and a 1 to 2 mm piece of this nerve was excised just below the level of the femoral head. A sham surgery was performed on the right hind limb in which the sciatic nerve was exposed but was not transected. Model 2002 Alzet pumps were implanted subcutaneously on the back. […] A pellet containing 15 mg of testosterone (Innovative Research of America, Sarasota, Fla.) administered as a continuous infusion (5 mg/wk), or a pellet containing placebo, was inserted into a subcutaneous pouch. […]\nas §4"}, "[2]": {"test": "Acute denervation (0-14 days): muscle weights", "format": "in vivo", "details": "rat", "method": "Male Wistar rats weighing 250 gm (Taconic Farms, Germantown, N.Y.) were provided food and water ad libitum and were housed in a temperature and humidity controlled environment providing a 12:12 hour day-night cycle. For surgical procedures, animals were anesthetized with ketamine/xylazine. The left sciatic nerve was exposed by blunt dissection, and a 1 to 2 mm piece of this nerve was excised just below the level of the femoral head. A sham surgery was performed on the right hind limb in which the sciatic nerve was exposed but was not transected. Model 2002 Alzet pumps were implanted subcutaneously on the back. […] A pellet containing 15 mg of testosterone (Innovative Research of America, Sarasota, Fla.) administered as a continuous infusion (5 mg/wk), or a pellet containing placebo, was inserted into a subcutaneous pouch. […] Because testosterone is known to have anabolic actions (Ferrando et al., Am J Physiol Endocrinol Metab 282: E601-E607, 2002; Mauras et al., J Clin Endocrinol Metab 83: 1886-1892, 1998; Urban et al., Am J Physiol 269: E820-E826, 1995), reductions in levels of this hormone could affect muscle mass and confound interpretation of the results. Animals were euthanized 14 days later by inhalation of carbon dioxide. Following removal of blood from the left ventricle for determination of serum testosterone concentration by radioimmunoassay (MP Biomedicals, Costa Mesa, Calif.), soleus, extensor digitorum longus (EDL), gastrocnemius and plantaris muscles were excised and weighed, then were flash frozen on dry ice and stored at −80° C."}, "GR": {"target": "GR", "details": "Danhaive and Rousseau 1986; cited from earlier work"}, "[3]": {"details": "denervated muscle, any time tested"}}}
{"smiles": "C[C@]12CC[C@H]3[C@@H](CCC4=CC(=O)CC[C@@H]43)[C@@H]1CC[C@@H]2O", "note": "[nandrolone]", "values": [{"measurement": "IGFBP-5 expression", "setting": "IGFBP-5; denervated muscle, 56-days", "value": "tended to reduce"}, {"measurement": "IGFBP-5 expression", "setting": "IGFBP-5; [3]", "value": "did not significantly alter"}, {"measurement": "IGFBP-5 expression", "setting": "IGFBP-5; sham-denervated muscle", "value": "did not appreciably alter"}, {"measurement": "IGFBP-2 expression", "setting": "IGFBP-2; [3]", "value": "did not significantly alter"}, {"measurement": "IGFBP-2 expression", "setting": "IGFBP-2; sham-denervated muscle", "value": "did not appreciably alter"}, {"measurement": "MAFbx expression", "setting": "MAFbx; denervated muscle, 7-days infusion (35 days after denervation)", "value": "tended to be reduced"}, {"measurement": "reduction of MAFbx expression", "setting": "MAFbx; denervated muscle, 28 days administration", "value": 35, "unit": "%"}, {"measurement": "MAFbx expression", "setting": "MAFbx; sham-denervated muscle", "value": "did not alter"}, {"measurement": "weights of denervated muscles versus vehicle", "setting": "[1]; after 3 days of nandrolone (31 days)", "value": "similar"}, {"measurement": "increase in mass of muscles in the normal limb", "setting": "[1]; nandrolone 0.75 mg/kg/wk plus testosterone from day 28, not significant", "value": "2-5%"}, {"measurement": "MuRF1 expression", "setting": "MuRF1; denervated EDL", "value": "significantly reduced"}, {"measurement": "MuRF1 expression", "setting": "MuRF1; denervated soleus", "value": "significantly decreased"}, {"measurement": "MuRF1 expression", "setting": "MuRF1; sham-denervated soleus or EDL", "value": "did not significantly affect"}, {"measurement": "myostatin expression", "setting": "myostatin; denervated EDL", "value": "appeared to reduce"}, {"measurement": "myostatin expression", "setting": "myostatin; sham-denervated EDL", "value": "significantly reduced"}, {"measurement": "myostatin expression", "setting": "myostatin; soleus", "value": "did not appreciably alter"}, {"measurement": "IGF-1 expression", "setting": "IGF-1; denervated EDL", "value": "significantly reduced"}, {"measurement": "IGF-1 expression", "setting": "IGF-1; denervated or sham-denervated soleus", "value": "did not significantly affect"}, {"measurement": "IGF-1 expression", "setting": "IGF-1; sham-denervated EDL", "value": "significantly reduced"}, {"measurement": "reduction in GADD45 expression", "setting": "GADD45; denervated EDL", "value": 21, "unit": "%"}, {"measurement": "decrease in GADD45 expression", "setting": "GADD45; denervated soleus", "value": 40, "unit": "%"}, {"measurement": "weights of muscles from sham-transected limbs", "setting": "[2]; nandrolone 1.5 mg/kg/wk 14 days + testosterone replacement, not statistically significant", "value": "tended to be increased"}, {"measurement": "weights of muscles from the denervated limb versus vehicle", "setting": "[2]; nandrolone 1.5 mg/kg/wk, 14 days after sciatic transection", "value": "not significantly different"}, {"measurement": "effect on atrophy", "setting": "[2]; nandrolone 7.5 or 37.5 mg/kg/week, same protocol", "value": "No effect"}]}
{"smiles": "C[C@]12CC[C@H]3[C@@H](CCC4=CC(=O)CC[C@@]43C)[C@@H]1CC[C@@H]2O", "note": "[testosterone]", "values": [{"measurement": "Kd", "setting": "GR", "value": "~200", "unit": "nM"}]}
